Experimental data as given in US11793824B2, “Administration of nicotinamide mononucleotide in the treatment of disease” (Washington University, priority 2013, dated 2023).

System: neurospheres (NSPCs)
Assay: Microarray with parametric analysis of gene set enrichment (PAGE) of FK866-treated neurospheres
Assay type: cell-based, mouse
Procedure: For individual genes, raw microarray data were subjected to Z score transformation, and Z ratios were calculated as described previously (Cheadle et al, 2003). Subsequent analysis and Parametric Analysis of Gene Set Enrichment (PAGE) analysis was performed as previously described (Yoshino et al, 2011). The microarray data used in this study has been deposited into the NCBI GEO database (GEO accession number GSE49784).
The inventors investigated how inhibition of Nampt affects neurosphere proliferation. […] To distinguish whether this decrease in cell number was due to an inhibition of proliferation or enhancement of death, the inventors analyzed the protein levels of markers of proliferation, apoptosis, and autophagy. […] Parametric analysis of gene enrichment (PAGE) was conducted based on microarray analyses. See the Methods section. […] Data are presented as mean±s.e.m. *P<0.05. **P<0.01. ***P<0.001.

[1] = FK866 10 nM 48 hours, downregulated pathway
[2] = FK866 10 nM 48 hours, upregulated pathway

## O=C(/C=C/c1cccnc1)NCCCCC1CCN(C(=O)c2ccccc2)CC1 [FK866]
[1]
  Z Ratio: BASE_EXCISION_REPAIR: −4.3
  Z Ratio: CELL_CYCLE_CHECKPOINT_GO_0000075: −3.92
  Z Ratio: CELL_CYCLE_GO_0007049: −4.63
  Z Ratio: CELL_CYCLE_PHASE: −4.23
  Z Ratio: CELL_CYCLE_PROCESS: −4.75
  Z Ratio: CHROMOSOMAL_PART: −3.48
  Z Ratio: CHROMOSOME: −4.75
  Z Ratio: CONDENSED_CHROMOSOME: −3.57
  Z Ratio: CONDENSED_NUCLEAR_CHROMOSOME: −3.36
  Z Ratio: DNA_DEPENDENT_DNA_REPLICATION: −6.07
  Z Ratio: DNA_INTEGRITY_CHECKPOINT: −3.2
  Z Ratio: DNA_METABOLIC_PROCESS: −6.49
  Z Ratio: DNA_RECOMBINATION: −3.69
  Z Ratio: DNA_REPAIR: −5.98
  Z Ratio: DNA_REPLICATION: −6.2
  Z Ratio: DOUBLE_STRANDED_DNA_BINDING: −3.95
  Z Ratio: HYDROLASE_ACTIVITY_HYDROLYZING_N_GLYCOSYL_COMPOUNDS: −3.63
  Z Ratio: INTERPHASE: −3.28
  Z Ratio: INTERPHASE_OF_MITOTIC_CELL_CYCLE: −3.07
  Z Ratio: INTRACELLULAR_NON_MEMBRANE_BOUND_ORGANELLE: −3.46
  Z Ratio: INTRACELLULAR_ORGANELLE_PART: −5.85
  Z Ratio: MACROMOLECULAR_COMPLEX: −4.14
  Z Ratio: MEMBRANE_ENCLOSED_LUMEN: −5.04
  Z Ratio: METHYLTRANSFERASE_ACTIVITY: −3.3
  Z Ratio: MITOTIC_CELL_CYCLE: −3.48
  Z Ratio: M_PHASE: −3.67
  Z Ratio: NON_MEMBRANE_BOUND_ORGANELLE: −3.46
  Z Ratio: NUCLEAR_CHROMOSOME: −4.11
  Z Ratio: NUCLEAR_LUMEN: −4.74
  Z Ratio: NUCLEAR_PART: −7.07
  Z Ratio: NUCLEOBASE_NUCLEOSIDE_AND_NUCLEOTIDE_METABOLIC_PROCESS: −3.35
  Z Ratio: NUCLEOBASE_NUCLEOSIDE_NUCLEOTIDE_AND_NUCLEIC_ACID: −5.34
  Z Ratio: NUCLEOLUS: −3.47
  Z Ratio: NUCLEOPLASM: −3.62
  Z Ratio: NUCLEOTIDE_METABOLIC_PROCESS: −3.21
  Z Ratio: NUCLEUS: −5.95
  Z Ratio: ORGANELLE_LUMEN: −5.04
  Z Ratio: ORGANELLE_PART: −5.72
  Z Ratio: PROTEIN_COMPLEX: −3.08
  Z Ratio: REPLICATION_FORK: −3.6
  Z Ratio: RESPONSE_TO_DNA_DAMAGE_STIMULUS: −5.8
  Z Ratio: RESPONSE_TO_ENDOGENOUS_STIMULUS: −4.18
  Z Ratio: RIBONUCLEOPROTEIN_COMPLEX: −3.49
  Z Ratio: RNA_BINDING: −3.44
  Z Ratio: RNA_PROCESSING: −4.32
  Z Ratio: SINGLE_STRANDED_DNA_BINDING: −3.17
  Z Ratio: STRUCTURE_SPECIFIC_DNA_BINDING: −4.08
  Z Ratio: TRANSFERASE_ACTIVITY_TRANSFERRING_ONE_CARBON_GROUPS: −3.37
  Z Ratio: TRNA_METABOLIC_PROCESS: −3.76
  Z Ratio: TRNA_PROCESSING: −3.51
[2]
  Z Ratio: ACTIN_FILAMENT_BASED_PROCESS: 3.18
  Z Ratio: ANATOMICAL_STRUCTURE_DEVELOPMENT: 4.47
  Z Ratio: ANATOMICAL_STRUCTURE_MORPHOGENESIS: 3.39
  Z Ratio: AXON_GUIDANCE: 3.34
  Z Ratio: CELL_DEVELOPMENT: 3.44
  Z Ratio: CELL_JUNCTION: 3.29
  Z Ratio: CELL_MATRIX_ADHESION: 3.18
  Z Ratio: CELL_MATRIX_JUNCTION: 3.20
  Z Ratio: CELL_SUBSTRATE_ADHERENS_JUNCTION: 3.17
  Z Ratio: CELL_SURFACE_RECEPTOR_LINKED_SIGNAL_TRANS-DUCTION_GO_000166: 3.17
  Z Ratio: CYTOSKELETAL_PROTEIN_BINDING: 3.36
  Z Ratio: EARLY_ENDOSOME: 3.37
  Z Ratio: ENZYME_LINKED_RECEPTOR_PROTEIN_SIGNALING_PATHWAY: 4.05
  Z Ratio: EXTRACELLULAR_REGION: 4.10
  Z Ratio: EXTRACELLULAR_REGION_PART: 3.82
  Z Ratio: EXTRACELLULAR_SPACE: 3.66
  Z Ratio: FOCAL_ADHESION: 3.44
  Z Ratio: FOCAL_ADHESION_FORMATION: 3.83
  Z Ratio: GENERATION_OF_NEURONS: 3.34
  Z Ratio: Growth: 3.85
  Z Ratio: IDENTICAL_PROTEIN_BINDING: 3.19
  Z Ratio: INTERMEDIATE_FILAMENT: 3.61
  Z Ratio: INTERMEDIATE_FILAMENT_CYTOSKELETON: 3.61
  Z Ratio: LIGAND_DEPENDENT_NUCLEAR_RECEPTOR_ACTIVITY: 3.26
  Z Ratio: LIPID_HOMEOSTASIS: 3.28
  Z Ratio: MEMBRANE: 3.55
  Z Ratio: MESODERM_DEVELOPMENT: 3.45
  Z Ratio: MULTICELLULAR_ORGANISMAL_DEVELOPMENT: 4.64
  Z Ratio: NEGATIVE_REGULATION_OF_GROWTH: 3.84
  Z Ratio: NERVOUS_SYSTEM_DEVELOPMENT: 3.39
  Z Ratio: NEUROGENESIS: 3.21
  Z Ratio: NEURON_PROJECTION: 3.62
  Z Ratio: OLIGOSACCHARIDE_METABOLIC_PROCESS: 3.82
  Z Ratio: ORGAN_DEVELOPMENT: 4.28
  Z Ratio: PDZ_DOMAIN_BINDING: 3.26
  Z Ratio: PHOSPHOINOSITIDE_BINDING: 4.49
  Z Ratio: PLASMA_MEMBRANE: 3.46
  Z Ratio: POSITIVE_REGULATION_OF_SECRETION: 3.51
  Z Ratio: RECEPTOR_BINDING: 4.25
  Z Ratio: REGULATION_OF_CELL_GROWTH: 3.49
  Z Ratio: REGULATION_OF_GROWTH: 3.48
  Z Ratio: REGULATION_OF_SIGNAL_TRANSDUCTION: 3.77
  Z Ratio: SENSORY_PERCEPTION: 3.57
  Z Ratio: SIALYLTRANSFERASE_ACTIVITY: 1.61
  Z Ratio: SIGNAL_TRANSDUCTION: 3.47
  Z Ratio: SYSTEM_DEVELOPMENT: 4.69
  Z Ratio: SYSTEM_PROCESS: 3.74
  Z Ratio: TASTE_RECEPTOR_ACTIVITY: 3.36
  Z Ratio: TRANSMEMBRANE_RECEPTOR_PROTEIN_TYROSINE_KINASE_SIGNALING_PATH: 3.18
  Z Ratio: VACUOLE: 3.19
FK866-treated neurospheres
  number of the top 50 downregulated pathways related to the cell cycle: 13
  top 50 upregulated pathways involved in cell death: none
